Eight molecules from patent publication USRE39155E1, “Use of 1,3-oxathiolane nucleoside analogues in the treatment of hepatitis B” (Shire BioChem Inc., priority 1991, dated 2006) can be followed below.

One experiment concerns hepatitis B virus. Put plainly: General statement of activity against hepatitis B virus in vitro and in vivo.
Another experiment has as its system Duck hepatitis B virus. Put plainly: Activity against Duck hepatitis B virus in primary duck hepatocyte cultures, DHBV DNA dot-blot. The class given is cell-based. The following applies: DHBV-infected primary duck hepatocytes. Here is the method: The DNA from DHBV-infected hepatocytes was extracted and spotted onto a nitrocellular filter. […] The DNA was extracted from 6-cm cell culture dishes at various times post-plating. In the VC group, cells were harvested at 2, 6, 8, 10, 14, 18 and 20 days. Duplicate samples were spotted for days 14, 18 and 20. […] Drugs were added to the culture at 2 days post-plating and maintained throughout media changes every 2 days. The total intracellular DNA was extracted from cells using the standard phenol extraction method. […] The pellet of nucleic acid was washed with ethanol and dried. The DNA was dissolved in a solution containing 12.5 mM Tris HCl, pH 7.5, 10 mM EDTA, 30% glycerol and 0.01% bromophenol blue.

In a further experiment the test system is human hepatitis B virus. Put plainly: 2.2.15 cells (Hep G2 transfected with HBV genomic DNA), extracellular HBV DNA dot-blot after 10 day treatment. The class given is cell-based. Here is the method:
(ii) The method used for this test is described in detail in Korba et al. Antiviral Research 15, 217-228, 1992, and summarised below.
Hep G2 cells transfected with human hepatitis B virus genomic DNA (2.2.15 cells) were grown and maintained in RPMI-1640 culture medium containing 5% foetal bovine serum, 2 mM glutamine and 50 μg/ml gentamicin sulphate, and checked routinely for G418 resistance. Cultures of 2.2.15 cells were grown to confluence in 24 well tissue culture plates and maintained for 2 to 3 days in that condition prior to drug treatment.
These solutions were diluted as needed in culture medium.
The culture medium on the confluent cells was changed 24 hours prior to exposure to test compounds. During the 10 day treatment the culture medium was changed daily. After 10 days of treatment the culture medium was collected and frozen at −70° C. for HBV DNA analysis.
To analyse extracellular HBV DNA, 0.2 ml samples of culture medium were incubated for 20 minutes at 25° C. in 1M NaOH/10X SSC (1X SSC is 0.15M NaCl/0.015 M Sodium Citrate, pH 7.2) and then applied to nitrocellulose membranes presoaked in 20X SSC using a blotting apparatus. Samples were neutralised by washing twice with 0.5 ml of 1M Tris, pH 7.2/2M NaCl and once with 5 ml of 20X SSC. Filters were then rinsed in 2X SSC and baked at 80° C. for 1 hour under vacuum.
A purified 3.2 kb EcoRl HBV DNA fragment was labelled with [^32P]dCTP by nick translation and used as a probe to detect HBV DNA on the dot-blot by DNA hybridisation. After washing, the hybridised blot was dried and ^32P was quantified using an Ambis beta scanner.

[1] abbreviates: Duck hepatitis B virus, Hepatocyte, read-out: IC50.
[2] abbreviates: 2.2.15 cells, 10 day treatment, extracellular HBV DNA, read-out: IC50.

Converted amounts (≈) assume the structure as drawn. Like-named read-outs stand apart in the source and are kept apart here. A value given as a limit tells only on which side of the number the result lay.

As to `Nc1ccn(C2CSC(CO)O2)c(=O)n1` (racemic) [Racemate, cis-4-amino-1-(2-hydroxymethyl-1,3-oxathiolan-5-yl-(1H)-pyrimidin-2-one], the “activity against the hepatitis B virus” value with hepatitis B virus (listed as BCH-189) was “active both in vitro and in vivo”; in the experiment on hepatitis B virus (listed as compound of formula (I)), “inhibit the hepatitis B virus both in vitro and in vivo”.

As for `Nc1ccn([C@H]2CS[C@@H](CO)O2)c(=O)n1` (stereo in doubt) [Compound 3TC, (2R,cis)-4-amino-1-(2-hydroxymethyl-1,3-oxathiolan-5-yl)-(1H)-pyrimidin-2-one], the IC50 with Duck hepatitis B virus (setting [1]) was below 1 µg/mL. `Nc1ccn([C@@H]2CS[C@H](CO)O2)c(=O)n1` [Compound 3TC, (2R,cis)-4-amino-1-(2-hydroxymethyl-1,3-oxathiolan-5-yl)-(1H)-pyrimidin-2-one]: in the experiment with hepatitis B virus, the “activity against the hepatitis B virus” value is “active both in vitro and in vivo”. Moreover, in the experiment with human hepatitis B virus (Hepatitis B virus, HepG2, 240 h, 2.2.15 cells, 10 day treatment, extracellular HBV DNA, read-out: IC50), the IC50 was 5.6 µM. As for `Nc1ncnc2c1ncn2[C@@H]1O[C@H](COP(=O)(O)O)[C@@H](O)[C@@H]1O` [araAMP, adenosylarabinoside-5′-monophosphate], in the experiment on human hepatitis B virus (setting [2]), the IC50 came to 2.9 µM. The same measure, in the same setting: then `Nc1nc2c(ncn2[C@H]2C[C@@H](CO)[C@H](O)C2)c(=O)[nH]1` [cdG, carbocyclic deoxyguanosine], with 0.034 µM. As to `Nc1ccn([C@H]2CC[C@@H](CO)O2)c(=O)n1` [ddC, 2′,3′-dideoxycytidine], in the experiment on human hepatitis B virus (Hepatitis B virus, HepG2, 240 h, read-out: IC50 μM), the IC50 worked out at 2.2 µM. On to `Nc1nc(N)c2ncn([C@H]3CC[C@@H](CO)O3)c2n1` [ddDAPR, 2,6-diaminopurine-9-β-D-2′,3′-dideoxyribofuranoside], for which the 50% inhibitory concentration (IC50) in the experiment with Duck hepatitis B virus was determined as 0.07 µg/mL (≈ 0.28 µM).

For `Nc1nc2c(ncn2[C@H]2CC[C@@H](CO)O2)c(=O)[nH]1` [ddG, 2′,3′-dideoxy-guanosine], the IC50 in the experiment on Duck hepatitis B virus (setting [1]) came to 0.07 µg/mL (≈ 0.279 µM).
